According to US20090304692A1, “TRIAZINE COMPOUNDS AS PI3 KINASE AND MTOR INHIBITORS” (Wyeth, priority 2008, published 2009):
Like-named read-outs stand apart in the source and are kept apart here.

Assays:
[1] = molecular target: PI3K-γ (Homo sapiens, UniProt P48736); assay: PI3K-gamma fluorescence polarization assay; details: read-out: IC50 PI3Kγ
[2] = molecular target: PI3K-α (Homo sapiens, UniProt P42336); assay: PI3K-alpha fluorescence polarization assay; details: read-out: IC50 PI3Kα
[3] = molecular target: Human mTOR (FLAG-TOR) (Homo sapiens, UniProt P42345); assay: mTOR kinase assay (DELFIA format, purified enzyme); assay type: biochemical; details: read-out: IC50 mTOR
Sequence of Human mTOR (FLAG-TOR) (P42345 1360-2549 limits assumed): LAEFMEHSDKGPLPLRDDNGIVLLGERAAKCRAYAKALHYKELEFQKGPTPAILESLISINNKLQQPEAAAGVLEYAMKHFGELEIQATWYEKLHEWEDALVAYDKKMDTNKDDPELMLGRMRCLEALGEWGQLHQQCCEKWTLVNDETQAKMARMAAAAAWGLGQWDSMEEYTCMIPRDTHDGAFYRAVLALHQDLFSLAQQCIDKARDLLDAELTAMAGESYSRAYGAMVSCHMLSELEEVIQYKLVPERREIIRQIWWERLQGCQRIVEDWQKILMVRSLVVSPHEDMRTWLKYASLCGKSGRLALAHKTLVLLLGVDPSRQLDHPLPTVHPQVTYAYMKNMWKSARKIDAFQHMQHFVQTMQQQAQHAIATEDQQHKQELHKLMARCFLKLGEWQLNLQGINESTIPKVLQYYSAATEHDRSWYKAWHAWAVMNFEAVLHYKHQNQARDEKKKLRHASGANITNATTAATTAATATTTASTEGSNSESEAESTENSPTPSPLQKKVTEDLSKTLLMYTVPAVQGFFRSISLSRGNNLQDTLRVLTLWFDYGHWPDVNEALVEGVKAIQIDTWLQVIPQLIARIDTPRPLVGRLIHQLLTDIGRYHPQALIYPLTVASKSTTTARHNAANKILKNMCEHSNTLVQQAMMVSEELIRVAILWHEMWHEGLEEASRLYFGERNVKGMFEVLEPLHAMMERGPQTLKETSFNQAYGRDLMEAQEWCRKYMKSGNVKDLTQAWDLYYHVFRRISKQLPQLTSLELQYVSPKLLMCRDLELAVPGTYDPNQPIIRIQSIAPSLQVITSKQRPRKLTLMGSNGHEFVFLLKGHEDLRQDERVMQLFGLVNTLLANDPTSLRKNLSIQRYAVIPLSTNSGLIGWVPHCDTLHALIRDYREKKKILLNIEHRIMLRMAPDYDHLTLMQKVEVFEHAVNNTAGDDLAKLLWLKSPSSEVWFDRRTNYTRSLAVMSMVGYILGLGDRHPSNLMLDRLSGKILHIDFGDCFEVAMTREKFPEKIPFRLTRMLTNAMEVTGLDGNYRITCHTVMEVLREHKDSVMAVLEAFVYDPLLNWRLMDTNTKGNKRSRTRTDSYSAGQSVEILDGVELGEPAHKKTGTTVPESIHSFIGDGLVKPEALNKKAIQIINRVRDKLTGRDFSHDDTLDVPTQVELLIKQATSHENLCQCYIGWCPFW

Sequence of PI3K-γ (P48736 whole entry, species assumed): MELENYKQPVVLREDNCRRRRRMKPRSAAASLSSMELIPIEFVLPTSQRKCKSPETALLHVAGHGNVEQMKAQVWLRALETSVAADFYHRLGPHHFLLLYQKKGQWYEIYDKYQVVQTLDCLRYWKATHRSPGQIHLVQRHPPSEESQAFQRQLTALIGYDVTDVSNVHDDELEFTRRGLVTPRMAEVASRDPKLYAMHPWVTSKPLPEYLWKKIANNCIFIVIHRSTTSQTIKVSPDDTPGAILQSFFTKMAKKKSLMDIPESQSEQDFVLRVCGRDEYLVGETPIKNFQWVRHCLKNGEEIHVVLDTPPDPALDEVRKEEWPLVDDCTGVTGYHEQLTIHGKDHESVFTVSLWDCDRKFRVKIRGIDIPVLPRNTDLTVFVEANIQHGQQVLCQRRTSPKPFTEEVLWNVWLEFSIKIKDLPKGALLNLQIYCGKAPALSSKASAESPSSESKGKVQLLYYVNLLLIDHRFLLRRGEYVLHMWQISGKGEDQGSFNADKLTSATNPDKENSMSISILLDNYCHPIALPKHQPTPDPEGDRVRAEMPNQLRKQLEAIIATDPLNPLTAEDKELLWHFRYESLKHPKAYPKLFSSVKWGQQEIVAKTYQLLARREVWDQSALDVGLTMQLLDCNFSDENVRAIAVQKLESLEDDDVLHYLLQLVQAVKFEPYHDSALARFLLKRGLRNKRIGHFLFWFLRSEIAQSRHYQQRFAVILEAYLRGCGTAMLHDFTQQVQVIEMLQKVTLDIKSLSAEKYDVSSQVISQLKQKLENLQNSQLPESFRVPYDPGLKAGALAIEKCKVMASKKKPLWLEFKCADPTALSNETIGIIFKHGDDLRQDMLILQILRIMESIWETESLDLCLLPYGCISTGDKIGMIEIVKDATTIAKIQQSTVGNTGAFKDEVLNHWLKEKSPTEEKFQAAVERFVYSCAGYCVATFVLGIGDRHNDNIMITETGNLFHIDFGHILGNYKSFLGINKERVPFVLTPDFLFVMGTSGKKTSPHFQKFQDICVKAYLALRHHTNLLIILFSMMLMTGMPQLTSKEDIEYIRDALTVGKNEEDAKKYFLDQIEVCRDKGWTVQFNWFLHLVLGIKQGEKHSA
Sequence of PI3K-α (P42336 whole entry, species assumed): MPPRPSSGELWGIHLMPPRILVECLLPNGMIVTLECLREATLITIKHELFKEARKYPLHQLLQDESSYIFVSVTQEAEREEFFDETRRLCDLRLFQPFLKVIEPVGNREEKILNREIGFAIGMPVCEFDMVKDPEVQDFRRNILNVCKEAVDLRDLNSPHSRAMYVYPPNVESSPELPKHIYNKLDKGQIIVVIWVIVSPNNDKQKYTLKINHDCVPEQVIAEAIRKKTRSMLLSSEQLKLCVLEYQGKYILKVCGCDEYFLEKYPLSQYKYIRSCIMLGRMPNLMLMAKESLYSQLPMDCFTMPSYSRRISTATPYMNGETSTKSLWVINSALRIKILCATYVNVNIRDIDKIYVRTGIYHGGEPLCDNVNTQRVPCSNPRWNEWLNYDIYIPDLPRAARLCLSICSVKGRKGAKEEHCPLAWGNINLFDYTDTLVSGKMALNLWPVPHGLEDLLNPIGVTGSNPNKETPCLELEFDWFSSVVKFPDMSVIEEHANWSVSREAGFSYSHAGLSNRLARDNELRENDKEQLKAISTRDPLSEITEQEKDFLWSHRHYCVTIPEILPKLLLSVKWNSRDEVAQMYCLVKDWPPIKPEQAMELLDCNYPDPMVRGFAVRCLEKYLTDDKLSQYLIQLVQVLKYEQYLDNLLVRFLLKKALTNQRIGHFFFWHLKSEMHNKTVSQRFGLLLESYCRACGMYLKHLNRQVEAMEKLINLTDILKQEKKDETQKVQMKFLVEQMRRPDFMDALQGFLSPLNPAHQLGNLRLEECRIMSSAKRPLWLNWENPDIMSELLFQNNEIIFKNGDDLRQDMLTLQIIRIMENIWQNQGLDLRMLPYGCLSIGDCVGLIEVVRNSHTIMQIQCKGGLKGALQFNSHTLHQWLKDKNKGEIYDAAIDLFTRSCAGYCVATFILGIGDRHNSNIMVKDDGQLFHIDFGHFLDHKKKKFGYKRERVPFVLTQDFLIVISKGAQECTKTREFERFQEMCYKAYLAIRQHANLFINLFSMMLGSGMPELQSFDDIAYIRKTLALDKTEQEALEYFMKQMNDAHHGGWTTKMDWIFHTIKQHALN
Sequence of PI3K-α (P27986 whole entry partner, species assumed): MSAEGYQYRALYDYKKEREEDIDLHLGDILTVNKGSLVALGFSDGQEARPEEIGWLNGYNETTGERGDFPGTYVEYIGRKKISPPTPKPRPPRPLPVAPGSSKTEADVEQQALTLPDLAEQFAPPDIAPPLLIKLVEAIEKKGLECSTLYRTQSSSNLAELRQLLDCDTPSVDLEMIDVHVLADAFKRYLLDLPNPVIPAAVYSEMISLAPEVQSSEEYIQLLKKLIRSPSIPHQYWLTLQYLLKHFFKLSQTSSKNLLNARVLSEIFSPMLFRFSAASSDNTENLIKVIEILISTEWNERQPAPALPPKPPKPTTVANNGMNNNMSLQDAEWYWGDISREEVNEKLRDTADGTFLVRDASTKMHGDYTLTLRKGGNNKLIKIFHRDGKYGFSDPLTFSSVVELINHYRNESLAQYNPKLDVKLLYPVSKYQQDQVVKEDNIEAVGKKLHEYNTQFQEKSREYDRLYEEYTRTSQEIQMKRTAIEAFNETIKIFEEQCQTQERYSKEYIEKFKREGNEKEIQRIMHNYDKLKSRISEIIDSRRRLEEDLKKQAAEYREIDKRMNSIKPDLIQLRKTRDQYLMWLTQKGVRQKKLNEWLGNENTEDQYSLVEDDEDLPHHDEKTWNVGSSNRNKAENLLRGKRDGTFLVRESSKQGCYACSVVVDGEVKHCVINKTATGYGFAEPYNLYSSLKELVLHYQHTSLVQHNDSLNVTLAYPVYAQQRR

| Compound | IC50 [1] [nM] | IC50 [2] [nM] | IC50 [3] [nM] | IC50 ([2]; listed as 828) [nM] |
| --- | --- | --- | --- | --- |
| CC(C)N1CCCN(c2nc(-c3ccc(NC(=O)Nc4ccc(C(=O)NCCN(C)C)cc4)cc3)nc(N3CCOCC3)n2)CC1 [Example 660, N-[2-(dimethylamino)ethyl]-4-{[(4-{4-[4-(1-methylethyl)-1,4-diazepan-1-yl]-6-morpholin-4-yl-1,3,5-triazin-2-yl}phenyl)carbamoyl]amino}benzamide] | 168 | 7.5 | 305 | – |
| CC(=O)NC1CCN(C(=O)c2ccc(NC(=O)Nc3ccc(-c4nc(N5CCOCC5)nc(N5CCCN(C(C)C)CC5)n4)cc3)cc2)CC1 [Example 661, N-{1-[(4-{[(4-{4-[4-(1-methylethyl)-1,4-diazepan-1-yl]-6-morpholin-4-yl-1,3,5-triazin-2-yl}phenyl)carbamoyl]amino}phenyl)carbonyl]piperidin-4-yl}acetamide] | 462 | 56.5 | 580 | – |
| CCN1CCN(C(=O)c2ccc(NC(=O)Nc3ccc(-c4nc(N5CCOCC5)nc(N5CCCN(C(C)C)CC5)n4)cc3)cc2)CC1 [Example 662, 1-{4-[(4-ethylpiperazin-1-yl)carbonyl]phenyl}-3-(4-{4-[4-(1-methylethyl)-1,4-diazepan-1-yl]-6-morpholin-4-yl-1,3,5-triazin-2-yl}phenyl)urea] | 197 | 34.3 | 770 | – |
| CC(C)N1CCN(C(=O)c2ccc(NC(=O)Nc3ccc(-c4nc(N5CCOCC5)nc(N5CCCN(C(C)C)CC5)n4)cc3)cc2)CC1 [Example 663, 1-(4-{4-[4-(1-methylethyl)-1,4-diazepan-1-yl]-6-morpholin-4-yl-1,3,5-triazin-2-yl}phenyl)-3-(4-{[4-(1-methylethyl)piperazin-1-yl]carbonyl}phenyl)urea] | 296 | 47.3 | 590 | – |
| CCCCN1CCN(C(=O)c2ccc(NC(=O)Nc3ccc(-c4nc(N5CCOCC5)nc(N5CCCN(C(C)C)CC5)n4)cc3)cc2)CC1 [Example 665, 1-{4-[(4-butylpiperazin-1-yl)carbonyl]phenyl}-3-(4-{4-[4-(1-methylethyl)-1,4-diazepan-1-yl]-6-morpholin-4-yl-1,3,5-triazin-2-yl}phenyl)urea] | 284 | 71 | 445 | – |
| COC(=O)c1ccc(NC(=O)Nc2ccc(-c3nc(N4CCOCC4)nc(N4C5CCC4COC5)n3)cc2)cc1 [Example 693, methyl 4-[({4-[4-morpholin-4-yl-6-(3-oxa-8-azabicyclo[3.2.1]oct-8-yl)-1,3,5-triazin-2-yl]phenyl}carbamoyl)amino]benzoate] | 289 | 69 | 1.35 | – |
| CN1CCN(c2ccc(NC(=O)Nc3ccc(-c4nc(NS(=O)(=O)c5ccccc5)nc(N5CCOCC5)n4)cc3)cc2)CC1 [Example 782, N-{4-[4-({[4-(4-methylpiperazin-1-yl)phenyl]carbamoyl}amino)phenyl]-6-morpholin-4-yl-1,3,5-triazin-2-yl}benzenesulfonamide] | 252 | 124 | 110 | – |
| CN(C)CCOc1ccc(NC(=O)Nc2ccc(-c3nc(NS(=O)(=O)c4ccccc4)nc(N4CCOCC4)n3)cc2)cc1 [Example 783, N-(4-{4-[({4-[2-(dimethylamino)ethoxy]phenyl}carbamoyl)amino]phenyl}-6-morpholin-4-yl-1,3,5-triazin-2-yl)benzenesulfonamide] | 736 | 346 | 295 | – |
| COC(=O)c1ccc(NC(=O)Nc2ccc(-c3nc(NS(=O)(=O)c4ccccc4)nc(N4CCOCC4)n3)cc2)cc1 [Example 789, methyl 4-{[(4-{4-morpholin-4-yl-6-[(phenylsulfonyl)amino]-1,3,5-triazin-2-yl}phenyl)carbamoyl]amino}benzoate] | 1160 | 870 | 59 | – |
| O=C(Nc1ccc(C(=O)O)cc1)Nc1ccc(-c2nc(NS(=O)(=O)c3ccccc3)nc(N3CCOCC3)n2)cc1 [Example 790, 4-{[(4-{4-morpholin-4-yl-6-[(phenylsulfonyl)amino]-1,3,5-triazin-2-yl}phenyl)carbamoyl]amino}benzoic acid] | 593 | 244 | 65 | – |
| Cc1cc(NC(=O)Nc2ccc(-c3nc(N4CCOCC4)nc(N4CC5CCC4CO5)n3)cc2)n(C)n1 (stereo not shown) [Example 808, 1-(1,3-dimethyl-1H-pyrazol-5-yl)-3-{4-[4-morpholin-4-yl-6-(2-oxa-5-azabicyclo[2.2.2]oct-5-yl)-1,3,5-triazin-2-yl]phenyl}urea] | 1260 | 381 | 260 | – |
| O=C(Nc1ccc(-c2nc(N3CCOCC3)nc(N3CC4CCC3CO4)n2)cc1)Nc1cc[nH]n1 (stereo not shown) [Example 809, 1-{4-[4-morpholin-4-yl-6-(2-oxa-5-azabicyclo[2.2.2]oct-5-yl)-1,3,5-triazin-2-yl]phenyl}-3-(1H-pyrazol-3-yl)urea] | 2190 | 395 | 67 | – |
| O=C(Nc1ccncc1)Nc1ccc(-c2nc(N3CCOCC3)nc(N3C4COCC3[C@H](O)C4)n2)cc1 (stereo partly drawn) [Example 820, 1-(4-{4-[(6R)-6-hydroxy-3-oxa-8-azabicyclo[3.2.1]oct-8-yl]-6-morpholin-4-yl-1,3,5-triazin-2-yl}phenyl)-3-pyridin-4-ylurea] | 67 | 6.1 | 0.515 | – |
| O=C(Nc1ccncc1)Nc1ccc(-c2nc(N3CCOCC3)nc(N3C4COCC3[C@H](OCc3ccccc3)C4)n2)cc1 (stereo partly drawn) [Example 821, 1-(4-{4-[(6R)-6-(benzyloxy)-3-oxa-8-azabicyclo[3.2.1]oct-8-yl]-6-morpholin-4-yl-1,3,5-triazin-2-yl}phenyl)-3-pyridin-4-ylurea] | 58.3 | 9.3 | 3.4 | – |
| O=C(Nc1ccc(C(=O)N2CCS(=O)(=O)CC2)cc1)Nc1ccc(-c2nc(N3CCOCC3)nc(N3C4CCC3COC4)n2)cc1 [Example 822, 1-{4-[(1,1-dioxidothiomorpholin-4-yl)carbonyl]phenyl}-3-{4-[4-morpholin-4-yl-6-(3-oxa-8-azabicyclo[3.2.1]oct-8-yl)-1,3,5-triazin-2-yl]phenyl}urea] | 31.5 | 3 | 0.335 | – |
| CN(C)[C@@H]1CCN(C(=O)c2ccc(NC(=O)Nc3ccc(-c4nc(N5CCOCC5)nc(N5C6CCC5COC6)n4)cc3)cc2)C1 [Example 825, 1-(4-{[(3R)-3-(dimethylamino)pyrrolidin-1-yl]carbonyl}phenyl)-3-{4-[4-morpholin-4-yl-6-(3-oxa-8-azabicyclo[3.2.1]oct-8-yl)-1,3,5-triazin-2-yl]phenyl}urea] | 13 | 2 | 185 | 2.05 |
| C[C@H]1COCCN1c1nc(-c2ccc(NC(=O)Nc3ccncc3)cc2)nc(N2C3CCC2COC3)n1 [Example 829, 1-(4-{4-[(3S)-3-methylmorpholin-4-yl]-6-(3-oxa-8-azabicyclo[3.2.1]oct-8-yl)-1,3,5-triazin-2-yl}phenyl)-3-pyridin-4-ylurea] | 188 | 10.5 | 520 | – |
| C[C@H]1COCCN1c1nc(-c2ccc(NC(=O)Nc3ccc(C(=O)N(C)CCN(C)C)cc3)cc2)nc(N2C3CCC2COC3)n1 [Example 831, N-[2-(dimethylamino)ethyl]-N-methyl-4-{[(4-{4-[(3S)-3-methylmorpholin-4-yl]-6-(3-oxa-8-azabicyclo[3.2.1]oct-8-yl)-1,3,5-triazin-2-yl}phenyl)carbamoyl]amino}benzamide] | 87.5 | 3.3 | 265 | – |
| C[C@H]1COCCN1c1nc(-c2ccc(NC(=O)Nc3ccc(C(=O)O)cc3)cc2)nc(N2C3CCC2COC3)n1 [Example 832, 4-{[(4-{4-[(3S)-3-methylmorpholin-4-yl]-6-(3-oxa-8-azabicyclo[3.2.1]oct-8-yl)-1,3,5-triazin-2-yl}phenyl)carbamoyl]amino}benzoic acid] | 342 | 61.5 | 165 | – |
| C[C@H]1COCCN1c1nc(-c2ccc(NC(=O)Nc3ccc(C(=O)N4CC[C@@H](N(C)C)C4)cc3)cc2)nc(N2C3CCC2COC3)n1 [Example 833, 1-(4-{[(3R)-3-(dimethylamino)pyrrolidin-1-yl]carbonyl}phenyl)-3-(4-{4-[(3S)-3-methylmorpholin-4-yl]-6-(3-oxa-8-azabicyclo[3.2.1]oct-8-yl)-1,3,5-triazin-2-yl}phenyl)urea] | 81.5 | 5.6 | 185 | – |
| C[C@H]1COCCN1c1nc(-c2ccc(NC(=O)Nc3ccc(C(=O)N4CC[C@H](N(C)C)C4)cc3)cc2)nc(N2C3CCC2COC3)n1 [Example 834, 1-(4-{[(3S)-3-(dimethylamino)pyrrolidin-1-yl]carbonyl}phenyl)-3-(4-{4-[(3S)-3-methylmorpholin-4-yl]-6-(3-oxa-8-azabicyclo[3.2.1]oct-8-yl)-1,3,5-triazin-2-yl}phenyl)urea] | 86.5 | 4.8 | 680 | – |
| CCN1CCN(C(=O)c2ccc(NC(=O)Nc3ccc(-c4nc(N5C6CCC5COC6)nc(N5CCOC[C@@H]5C)n4)cc3)cc2)CC1 [Example 836, 1-{4-[(4-ethylpiperazin-1-yl)carbonyl]phenyl}-3-(4-{4-[(3S)-3-methylmorpholin-4-yl]-6-(3-oxa-8-azabicyclo[3.2.1]oct-8-yl)-1,3,5-triazin-2-yl}phenyl)urea] | 41 | 5.1 | 665 | – |
| CN1CCN(C(=O)c2ccc(NC(=O)Nc3ccc(-c4nc(N5CCOCC5)nc(N5C6CCC5COC6)n4)cc3)cc2)CC1(C)C [Example 837, 1-{4-[4-(morpholin-4-yl)-6-(3-oxa-8-azabicyclo[3.2.1]oct-8-yl)-1,3,5-triazin-2-yl]phenyl}-3-{4-[(3,3,4-trimethylpiperazin-1-yl)carbonyl]phenyl}urea] | 19.5 | 3.7 | 515 | – |
| N-[2-(dimethylamino)ethyl]-N-methyl-4-[({4-[4-morpholin-4-yl-6-(tetrahydro-2H-pyran-4-yl)-1,3,5-triazin-2-yl]phenyl}carbamoyl)amino]benzamide [Example 524] | 10 | 0.8 | 0.26 | – |
